The source of these data is US10543198B2 (Celgene Quanticel Research, Inc., priority 2014, dated 2020).

Some results are limits rather than exact numbers.

In one experiment the target is full-length human LSD1 (Homo sapiens (Human), UniProt O60341). Briefly: In Vitro Enzyme Inhibition Assay - LSD-1 (TR-FRET). It is filed as biochemical. The conditions noted are these: 0.1 nM LSD1, H3K4me1-biotin peptide. As to the method: This assay determines the ability of a test compound to inhibit LSD1 demethylase activity.
The enzymatic assay of LSD1 activity is based on Time Resolved-Fluorescence Resonance Energy Transfer (TR-FRET) detection.
The ability of the compounds disclosed herein to inhibit LSD1 activity was quantified and the respective IC50 value was determined.

The subject of a further experiment is THP-1 (AML) cells. The experiment is described as follows: LSD1 CD11b Cellular Assay (flow cytometry). Type of experiment: cell-based. The conditions noted are these: CD11b expression in THP-1 cells, 4 days incubation. As to the method: To analyze LSD1 inhibitor efficacy in cells, a CD11b flow cytometry assay was performed. LSD1 inhibition induces CD11b expression in THP-1 (AML) cells which can be measured by flow cytometry. […] LSD1 test compounds were serially diluted in DMSO. The dilutions were added to each well accordingly to a final concentration of 0.2% DMSO. The cells were incubated at 37 degrees Celsius in 5% CO2 for 4 days. 250 μL of each well was transferred to a well in a 96 well round bottom plate. The plate was centrifuged at 1200 rpm at 4 degrees Celsius in a Beckman Coulter Alegra 6KR centrifuge for 5 minutes. The media was removed leaving the cells at the bottom of the wells. The cells were washed in 100 μL cold HBSS (Hank's Balanced Salt Solution) plus 2% BSA (Bovine Serum Albumin) solution and centrifuged at 1200 rpm at 4 degrees Celsius for 5 minutes. The wash was removed. […] The cells were centrifuged and washed two times in 100 μl HBSS plus 2% BSA. After the final spin the cells were resuspended in 100 μL HBSS plus 2% BSA containing 1 ug/mL DAPI (4′,6-diamidino-2-phenylindole). The cells were then analyzed by flow cytometry in a BD FACSAria machine. Cells were analyzed for CD11b expression. The percent of CD11b expressing cells for each inhibitor concentration was used to determine an IC50 curve for each compound analyzed.

Take `Cn1nnc2cc(-c3ncc(N4CCC(N)CC4)nc3-c3ccc(C#N)c(F)c3)cnc21` [Example 54, 4-[6-(4-aminopiperidin-1-yl)-3-{3-methyl-3H-[1,2,3]triazolo[4,5-b]pyridin-6-yl}pyrazin-2-yl]-2-fluorobenzonitrile]: the IC50 against full-length human LSD1 was below 100 nM; in the experiment on THP-1 (AML) cells (Homo sapiens, 96 h), below 100 nM.

In the case of `CNC1CCN(c2cnc(C#CC(C)(C)O)c(-c3ccc(C#N)c(F)c3)n2)CC1` [Example 66, 2-fluoro-4-[3-(3-hydroxy-3-methylbut-1-ynyl)-6-[4-(methylamino)piperidin-1-yl]pyrazin-2-yl]benzonitrile], the IC50 on full-length human LSD1 is below 100 nM; in the experiment with THP-1 (AML) cells (Homo sapiens, 96 h) it was below 100 nM.

Turning to `CNC1CCN(c2cnc(-c3cc4ncn(C)c4cc3F)c(-c3ccc(C#N)c(F)c3)n2)CC1` [Example 61, 2-fluoro-4-[3-(6-fluoro-1-methylbenzimidazol-5-yl)-6-[4-(methylamino)piperidin-1-yl]pyrazin-2-yl]benzonitrile], the IC50 at full-length human LSD1 is below 100 nM; with THP-1 (AML) cells (Homo sapiens, 96 h), below 100 nM. Regarding `CNC1CCN(c2cnc(-c3ccc(N(C)C)nc3)c(-c3ccc(C#N)c(F)c3)n2)CC1` [Example 57, 4-{3-[6-(dimethylamino)(3-pyridyl)]-6-[4-(methylamino)piperidyl]pyrazin-2-yl}-2-fluorobenzenecarbonitrile], the IC50 at full-length human LSD1 is below 100 nM; in the experiment with THP-1 (AML) cells (Homo sapiens, 96 h), below 100 nM. Regarding `CNC1CCN(c2cnc(-c3cc4ncn(C)c4c(F)c3F)c(-c3ccc(C#N)c(F)c3)n2)CC1` [Example 62, 4-[3-(6,7-difluoro-1-methylbenzimidazol-5-yl)-6-[4-(methylamino)piperidin-1-yl]pyrazin-2-yl]-2-fluorobenzonitrile], the IC50 against full-length human LSD1 is below 100 nM; in the experiment with THP-1 (AML) cells (Homo sapiens, 96 h), below 100 nM. Turning to “4-[5-(4-methylphenyl)-1-[[(2R)-morpholin-2-yl]methyl]pyrrolo[3,2-b]pyridin-6-yl]benzonitrile [Example 48]”, the IC50 in the experiment with THP-1 (AML) cells was above 10000 nM. Regarding `CCn1cnc2cc(-c3ncc(N4CCC(N)CC4)nc3-c3ccc(C#N)c(F)c3)c(F)cc21` [Example 71, 4-[6-(4-aminopiperidin-1-yl)-3-(1-ethyl-6-fluorobenzimidazol-5-yl)pyrazin-2-yl]-2-fluorobenzonitrile], the IC50 at full-length human LSD1 was below 100 nM; in the experiment with THP-1 (AML) cells (Homo sapiens, 96 h), below 100 nM. In the case of `CNC1CCN(c2cnc(-c3ccc4nn(C)cc4c3)c(-c3ccc(C#N)c(F)c3)n2)CC1` [Example 50, 2-fluoro-4-[3-(2-methyl-2H-indazol-5-yl)-6-[4-(methylamino)piperidin-1-yl]pyrazin-2-yl]benzonitrile], the IC50 at full-length human LSD1 was below 100 nM; with THP-1 (AML) cells (Homo sapiens, 96 h) it was below 100 nM. For `CNC1CCN(c2cnc(C#CC3(O)CCCC3)c(-c3ccc(C#N)c(F)c3)n2)CC1` [Example 64, 2-fluoro-4-[3-[2-(1-hydroxycyclopentyl)ethynyl]-6-[4-(methylamino)piperidin-1-yl]pyrazin-2-yl]benzonitrile], the IC50 against full-length human LSD1 is below 100 nM; in the experiment with THP-1 (AML) cells (Homo sapiens, 96 h), below 100 nM. With `Cn1cnc2cc(-c3ncc(N4CCC(N)CC4)nc3-c3ccc(C#N)c(F)c3)c(F)c(F)c21` [Example 75, 4-[6-(4-aminopiperidin-1-yl)-3-(6,7-difluoro-1-methylbenzimidazol-5-yl)pyrazin-2-yl]-2-fluorobenzonitrile], the IC50 was below 100 nM against full-length human LSD1 and below 100 nM in the experiment on THP-1 (AML) cells (Homo sapiens, 96 h). With `CC(C)n1cnc2cc(-c3ncc(N4CCC(N)CC4)nc3-c3ccc(C#N)c(F)c3)c(F)c(F)c21` [Example 73, 4-[6-(4-aminopiperidin-1-yl)-3-(6,7-difluoro-1-propan-2-ylbenzimidazol-5-yl)pyrazin-2-yl]-2-fluorobenzonitrile], the IC50 was below 100 nM at full-length human LSD1 and below 100 nM with THP-1 (AML) cells (Homo sapiens, 96 h). On to `CNC1CCN(c2cnc(-c3ccc4c(c3)ncn4C)c(-c3ccc(C#N)c(F)c3)n2)CC1` [Example 65, 2-fluoro-4-[6-[4-(methylamino)piperidin-1-yl]-3-(1-methylbenzimidazol-5-yl)pyrazin-2-yl]benzonitrile], for which the IC50 at full-length human LSD1 was below 100 nM; in the experiment with THP-1 (AML) cells (Homo sapiens, 96 h) it was below 100 nM.

Turning to `Cn1nnc2cc(-c3ncc(N4CCC(N)CC4)nc3-c3ccc(C#N)c(F)c3)ccc21` [Example 53, 4-[6-(4-aminopiperidin-1-yl)-3-(1-methyl-1H-1,2,3-benzotriazol-5-yl)pyrazin-2-yl]-2-fluorobenzonitrile], the IC50 is below 100 nM at full-length human LSD1 and below 100 nM with THP-1 (AML) cells (Homo sapiens, 96 h). `CC(C)n1cnc2cc(-c3ncc(N4CCC(N)CC4)nc3-c3ccc(C#N)c(F)c3)ccc21` [Example 72, 4-[6-(4-aminopiperidin-1-yl)-3-(1-propan-2-ylbenzimidazol-5-yl)pyrazin-2-yl]-2-fluorobenzonitrile]: the IC50 at full-length human LSD1 was below 100 nM; with THP-1 (AML) cells (Homo sapiens, 96 h) it was below 100 nM. For `Cn1cc2cc(-c3ncc(N4CCC(N)CC4)nc3-c3ccc(C#N)c(F)c3)ccc2n1` [Example 49, 4-[6-(4-aminopiperidin-1-yl)-3-(2-methyl-2H-indazol-5-yl)pyrazin-2-yl]-2-fluorobenzonitrile], the IC50 against full-length human LSD1 is below 100 nM; with THP-1 (AML) cells (Homo sapiens, 96 h), below 100 nM. On to `Cn1cc2ccc(-c3ncc(N4CCC(N)CC4)nc3-c3ccc(C#N)c(F)c3)cc2n1` [Example 52, 4-[6-(4-aminopiperidin-1-yl)-3-(2-methyl-2H-indazol-6-yl)pyrazin-2-yl]-2-fluorobenzonitrile], for which the half-inhibitory concentration (IC50) on full-length human LSD1 is below 100 nM; with THP-1 (AML) cells (Homo sapiens, 96 h) it was below 100 nM. With `CNC1CCN(c2cnc(-c3ccc4c(c3)nnn4C)c(-c3ccc(C#N)c(F)c3)n2)CC1` [Example 56, 2-fluoro-4-{6-[4-(methylamino)piperidyl]-3-(1-methylbenzotriazol-5-yl)pyrazin-2-yl}benzenecarbonitrile], the IC50 at full-length human LSD1 is below 100 nM; in the experiment with THP-1 (AML) cells (Homo sapiens, 96 h) it was below 100 nM. With `CNC1CCN(c2cnc(-c3ccc4c(c3)ncn4C(C)C)c(-c3ccc(C#N)c(F)c3)n2)CC1` [Example 68, 2-fluoro-4-[6-[4-(methylamino)piperidin-1-yl]-3-(1-propan-2-ylbenzimidazol-5-yl)pyrazin-2-yl]benzonitrile], the IC50 on full-length human LSD1 is below 100 nM; in the experiment with THP-1 (AML) cells (Homo sapiens, 96 h) it was below 100 nM. Take `Cn1ccc2cc(-c3ncc(N4CCC(N)CC4)nc3-c3ccc(C#N)c(F)c3)cnc21` [Example 55, 4-[6-(4-aminopiperidin-1-yl)-3-{1-methyl-1H-pyrrolo[2,3-b]pyridin-5-yl}pyrazin-2-yl]-2-fluorobenzonitrile]: the IC50 is below 100 nM against full-length human LSD1 and below 100 nM in the experiment with THP-1 (AML) cells (Homo sapiens, 96 h). In the case of `CCn1cnc2cc(-c3ncc(N4CCC(N)CC4)nc3-c3ccc(C#N)c(F)c3)c(F)c(F)c21` [Example 74, 4-[6-(4-aminopiperidin-1-yl)-3-(1-ethyl-6,7-difluorobenzimidazol-5-yl)pyrazin-2-yl]-2-fluorobenzonitrile], the IC50 at full-length human LSD1 was below 100 nM; in the experiment with THP-1 (AML) cells (Homo sapiens, 96 h) it was below 100 nM. `CCn1cnc2cc(-c3ncc(N4CCC(NC)CC4)nc3-c3ccc(C#N)c(F)c3)c(F)cc21` [Example 69, 4-[3-(1-ethyl-6-fluorobenzimidazol-5-yl)-6-[4-(methylamino)piperidin-1-yl]pyrazin-2-yl]-2-fluorobenzonitrile]: the IC50 against full-length human LSD1 was below 100 nM; with THP-1 (AML) cells (Homo sapiens, 96 h), below 100 nM. On to `CNC1CCN(c2cnc(-c3ccc(OC)c(F)c3)c(-c3ccc(C#N)c(F)c3)n2)CC1` [Example 63], for which the IC50 against full-length human LSD1 is below 100 nM; with THP-1 (AML) cells (Homo sapiens, 96 h), below 100 nM. `CN(C)C1CCN(c2cnc(-c3ccc4nn(C)cc4c3)c(-c3ccc(C#N)c(F)c3)n2)CC1` [Example 60, 4-{6-[4-(dimethylamino)piperidyl]-3-(2-methyl(2H-indazol-5-yl))pyrazin-2-yl}-2-fluorobenzenecarbonitrile]: the half-maximal inhibitory concentration (IC50) on full-length human LSD1 is below 100 nM; with THP-1 (AML) cells (Homo sapiens, 96 h), below 100 nM. For the molecule `CNC1CCN(c2cnc(-c3cc4ncn(C(C)C)c4cc3F)c(-c3ccc(C#N)c(F)c3)n2)CC1` [Example 67, 2-fluoro-4-[3-(6-fluoro-1-propan-2-ylbenzimidazol-5-yl)-6-[4-(methylamino)piperidin-1-yl]pyrazin-2-yl]benzonitrile], the IC50 was below 100 nM against full-length human LSD1 and below 100 nM with THP-1 (AML) cells (Homo sapiens, 96 h). `Cn1ncc2cc(-c3ncc(N4CCC(N)CC4)nc3-c3ccc(C#N)c(F)c3)ccc21` [Example 51, 4-[6-(4-aminopiperidin-1-yl)-3-(1-methyl-1H-indazol-5-yl)pyrazin-2-yl]-2-fluorobenzonitrile]: the IC50 against full-length human LSD1 is below 100 nM; in the experiment on THP-1 (AML) cells (Homo sapiens, 96 h) it was below 100 nM. Turning to `CC(C)n1cnc2cc(-c3ncc(N4CCC(N)CC4)nc3-c3ccc(C#N)c(F)c3)c(F)cc21` [Example 70, 4-[6-(4-aminopiperidin-1-yl)-3-(6-fluoro-1-propan-2-ylbenzimidazol-5-yl)pyrazin-2-yl]-2-fluorobenzonitrile], the IC50 on full-length human LSD1 is below 100 nM; in the experiment on THP-1 (AML) cells (Homo sapiens, 96 h), below 100 nM. `CNC1CCN(c2cnc(-c3cnc(N(C)C)nc3)c(-c3ccc(C#N)c(F)c3)n2)CC1` [Example 58, 4-{3-[2-(dimethylamino)pyrimidin-5-yl]-6-[4-(methylamino)piperidyl]pyrazin-2-yl}-2-fluorobenzenecarbonitrile]: the IC50 on full-length human LSD1 is below 100 nM; in the experiment on THP-1 (AML) cells (Homo sapiens, 96 h), below 100 nM.
